Values of other authors as cited in patent US20010001790A1, “TOPICAL FORMULATIONS COMPRISING SKIN PENETRATION AGENTS AND THE USE THEREOF” (priority 1999, published 2001).

Conditions: propylene glycol vehicle; upon addition of cetyl alcohol at 3% by weight

CC1(C)O[C@@H]2C[C@H]3[C@@H]4CCC5=CC(=O)C=C[C@]5(C)[C@@]4(F)[C@@H](O)C[C@]3(C)[C@]2(C(=O)CO)O1 [triamcinolone acetonide]
reduction of skin penetration of the pharmaceutically active agent: 39%
